Calls of active or inactive are those of the source. No cut-off for these calls is given here.
Experiments:
[1] = Clearance in CD-IGS rat at 2 mg/kg, iv administered as bolus dose; type: ADME, organism-based; conditions: in vivo
[2] = Terminal half life in iv dosed acute myeloid leukemia patient; type: ADME, organism-based; conditions: human, in vivo, read-out: beta t1/2 (converted)
[3] = molecular target: Organic anion transporter 3 (Homo sapiens, UniProt Q8TCC7); experiment: Inhibition of OAT3 (unknown origin) at upto 3 uM
[4] = Volume of distribution in iv dosed acute myeloid leukemia patient; type: ADME, organism-based; conditions: human, in vivo
[5] = molecular target: T1, Protein cereblon/Eukaryotic peptide chain release factor GTP-binding subunit ERF3A (Homo sapiens) (UniProt Q96SW2+P15170); experiment: Protac activity at CRBN/GSPT1 in human KG-1 cells assessed as GSPT1 degradation by measuring accumulation of CHOP at 200 uM incubated for 4 hrs by western blot analysis; type: cell-based
T1 sequence (P15170 whole entry, looked up): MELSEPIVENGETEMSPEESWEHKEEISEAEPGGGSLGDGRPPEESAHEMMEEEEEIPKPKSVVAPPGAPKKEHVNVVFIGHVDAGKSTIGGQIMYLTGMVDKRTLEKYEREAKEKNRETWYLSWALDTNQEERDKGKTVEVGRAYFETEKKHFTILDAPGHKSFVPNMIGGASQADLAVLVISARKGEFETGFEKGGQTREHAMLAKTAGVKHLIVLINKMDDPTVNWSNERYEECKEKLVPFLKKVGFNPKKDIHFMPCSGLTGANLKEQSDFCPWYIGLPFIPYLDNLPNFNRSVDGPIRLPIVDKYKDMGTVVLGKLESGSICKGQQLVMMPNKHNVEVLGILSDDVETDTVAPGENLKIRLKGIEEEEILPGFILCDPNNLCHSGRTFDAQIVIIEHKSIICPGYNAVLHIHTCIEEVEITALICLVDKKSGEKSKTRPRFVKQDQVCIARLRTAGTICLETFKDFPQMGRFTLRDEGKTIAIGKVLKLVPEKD
T1 sequence (Q96SW2 whole entry, looked up): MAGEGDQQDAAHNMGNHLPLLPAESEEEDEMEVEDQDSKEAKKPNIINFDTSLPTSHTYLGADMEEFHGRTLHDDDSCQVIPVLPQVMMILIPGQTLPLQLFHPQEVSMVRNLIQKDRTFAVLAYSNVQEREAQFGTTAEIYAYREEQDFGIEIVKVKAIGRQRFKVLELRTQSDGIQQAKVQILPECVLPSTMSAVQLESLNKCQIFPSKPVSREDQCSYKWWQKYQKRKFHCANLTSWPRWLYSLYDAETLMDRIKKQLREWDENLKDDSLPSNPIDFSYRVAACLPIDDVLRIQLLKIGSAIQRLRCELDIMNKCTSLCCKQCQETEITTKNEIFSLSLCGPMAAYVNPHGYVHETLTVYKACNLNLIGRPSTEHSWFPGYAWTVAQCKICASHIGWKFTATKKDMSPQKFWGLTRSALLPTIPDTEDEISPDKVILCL

[6] = molecular target: T1, Protein cereblon/Eukaryotic peptide chain release factor GTP-binding subunit ERF3A (Homo sapiens); experiment: Protac activity at CRBN/GSPT1 in CD3+ T cells derived from patients assessed as reduction of GSPT1 levels in T cells administered intravenously for 5 days by flow cytometry analysis; conditions: CD3-positive T cell, time 5.0 day
[7] = molecular target: T1, Protein cereblon/Eukaryotic peptide chain release factor GTP-binding subunit ERF3A (Homo sapiens); experiment: Protac activity at CRBN/GSPT1 in human NB-4 cells assessed as induction of GSPT1 degradation at 0.001 to 1 uM incubated for 4 hrs by western blot analysis; type: cell-based; conditions: dose 0.001-1 µM
CYP2C9 = CYP2C9 (Homo sapiens, UniProt P11712); experiment: Inhibition of CYP2C9 (unknown origin) at 2.5 uM relative to control; type: ADME
Sequence of CYP2C9 (P11712 whole entry): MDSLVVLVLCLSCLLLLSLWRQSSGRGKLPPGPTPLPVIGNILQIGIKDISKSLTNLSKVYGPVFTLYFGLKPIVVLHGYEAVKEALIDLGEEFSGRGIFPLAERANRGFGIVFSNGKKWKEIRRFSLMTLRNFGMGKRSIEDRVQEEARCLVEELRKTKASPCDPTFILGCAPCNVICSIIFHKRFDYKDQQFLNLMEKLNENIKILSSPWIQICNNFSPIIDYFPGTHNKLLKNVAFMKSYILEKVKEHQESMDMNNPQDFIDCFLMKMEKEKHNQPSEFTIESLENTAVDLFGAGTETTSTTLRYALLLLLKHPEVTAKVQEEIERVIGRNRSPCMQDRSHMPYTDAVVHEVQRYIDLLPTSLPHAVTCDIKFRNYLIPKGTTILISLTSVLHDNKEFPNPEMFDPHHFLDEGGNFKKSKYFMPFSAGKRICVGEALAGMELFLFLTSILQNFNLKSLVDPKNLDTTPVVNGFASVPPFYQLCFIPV

HL-60 [8] = experiment: Antitumor activity against human HL-60 cells in xenografted model assessed as reduction in CD33+/CD45+ in bone marrow at 5 mg/kg, BID administered for 5 consecutive days relative to control; type: functional; conditions: HL-60, 120 h, time 5 day
[9] = Volume of distribution at steady state in cynomolgus monkey at 1 mg/kg, iv administered as bolus dose; type: ADME, organism-based, Macaca fascicularis; conditions: in vivo, read-out: Vdss
[10] = MRT in CD1 mouse at 2 mg/kg, iv administered as bolus dose; type: ADME, organism-based; conditions: in vivo
[11] = MRT in CD-IGS rat at 2 mg/kg, iv administered as bolus dose; type: ADME, organism-based; conditions: in vivo
[12] = molecular target: T1, Protein cereblon/Eukaryotic peptide chain release factor GTP-binding subunit ERF3A (Homo sapiens); experiment: Protac activity at CRBN/GSPT1 in CD3+ T cells derived from patients assessed as reduction of GSPT1 levels at 2.4 mg, iv administered for 5 days by flow cytometry analysis relative to control; type: organism-based; parameters: scale not given: the % may be the effect or the level left; conditions: CD3-positive T cell, time 5.0 day
[13] = molecular target: T1, Protein cereblon/Eukaryotic peptide chain release factor GTP-binding subunit ERF3A (Homo sapiens); experiment: Protac activity at CRBN/GSPT1 in human KG-1 cells assessed as GSPT1 degradation by measuring accumulation of ATF3 at 200 uM incubated for 4 hrs by western blot analysis; type: cell-based
[14] = molecular target: T1, Protein cereblon/Eukaryotic peptide chain release factor GTP-binding subunit ERF3A (Homo sapiens); experiment: Protac activity at CRBN/GSPT1 in human KG-1 cells assessed as GSPT1 degradation at 1 uM incubated for 4 hrs by western blot analysis; type: cell-based
Cytochrome P450 2C19 = Cytochrome P450 2C19 (Homo sapiens, UniProt P33261); experiment: Inhibition of CYP2C19 (unknown origin); type: ADME
[15] = molecular target: T1, Protein cereblon/Eukaryotic peptide chain release factor GTP-binding subunit ERF3A (Homo sapiens); experiment: Protac activity at CRBN/GSPT1 in human KG-1 cells assessed as GSPT1 degradation by measuring accumulation of ATF4 at 200 uM incubated for 4 hrs by western blot analysis; type: cell-based
[16] = molecular target: Solute carrier organic anion transporter family member 1B1 (Homo sapiens, UniProt Q9Y6L6); experiment: Inhibition of OATP1B1 (unknown origin) at upto 3 uM
Sequence of Solute carrier organic anion transporter family member 1B1 (Q9Y6L6 whole entry): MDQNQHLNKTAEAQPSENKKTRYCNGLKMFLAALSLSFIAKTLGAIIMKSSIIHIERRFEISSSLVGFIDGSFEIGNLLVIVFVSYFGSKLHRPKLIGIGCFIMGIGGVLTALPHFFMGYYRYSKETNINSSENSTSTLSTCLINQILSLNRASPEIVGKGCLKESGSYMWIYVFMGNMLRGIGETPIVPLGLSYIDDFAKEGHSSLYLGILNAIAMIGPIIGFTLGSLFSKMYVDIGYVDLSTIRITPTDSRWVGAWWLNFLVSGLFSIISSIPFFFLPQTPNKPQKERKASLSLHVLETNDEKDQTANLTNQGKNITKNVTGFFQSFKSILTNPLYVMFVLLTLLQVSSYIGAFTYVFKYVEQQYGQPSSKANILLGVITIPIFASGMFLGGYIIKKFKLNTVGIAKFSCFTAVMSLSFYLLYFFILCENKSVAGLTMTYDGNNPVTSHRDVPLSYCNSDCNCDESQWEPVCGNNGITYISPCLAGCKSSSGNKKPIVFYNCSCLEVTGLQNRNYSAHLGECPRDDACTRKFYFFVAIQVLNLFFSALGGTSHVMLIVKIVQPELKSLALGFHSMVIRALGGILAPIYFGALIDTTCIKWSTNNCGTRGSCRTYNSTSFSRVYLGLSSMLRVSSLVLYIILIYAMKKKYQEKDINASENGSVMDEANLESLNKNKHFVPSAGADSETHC

Bone marrow cell = experiment: Antiproliferative activity in bone marrow cells derived from AML patients assessed as cell growth inhibition; type: functional, cell-based; conditions: Homo sapiens
[17] = molecular target: T1, Protein cereblon/Eukaryotic peptide chain release factor GTP-binding subunit ERF3A (Homo sapiens); experiment: Protac activity at CRBN/GSPT1 in human KG-1 cells assessed as GSPT1 degradation at 1 uM incubated for 4 hrs in presence of proteasome inhibitor bortezomib by western blot analysis; type: cell-based
[18] = molecular target: Broad substrate specificity ATP-binding cassette transporter ABCG2 (Homo sapiens, UniProt Q9UNQ0); experiment: Inhibition of BCRP (unknown origin) at upto 3 uM
[19] = Volume of distribution at steady state in CD1 mouse at 2 mg/kg, iv administered as bolus dose; type: ADME, organism-based; conditions: in vivo, read-out: Vdss
[20] = Volume of distribution at steady state in CD-IGS rat at 2 mg/kg, iv administered as bolus dose; type: ADME, organism-based; conditions: in vivo, read-out: Vdss
[21] = molecular target: Muscarinic acetylcholine receptor M1 (Homo sapiens) (UniProt P11229); experiment: Inhibition of human muscarinic M1 receptor at 10 uM relative to control
Sequence of Muscarinic acetylcholine receptor M1 (Homo sapiens) (P11229 whole entry): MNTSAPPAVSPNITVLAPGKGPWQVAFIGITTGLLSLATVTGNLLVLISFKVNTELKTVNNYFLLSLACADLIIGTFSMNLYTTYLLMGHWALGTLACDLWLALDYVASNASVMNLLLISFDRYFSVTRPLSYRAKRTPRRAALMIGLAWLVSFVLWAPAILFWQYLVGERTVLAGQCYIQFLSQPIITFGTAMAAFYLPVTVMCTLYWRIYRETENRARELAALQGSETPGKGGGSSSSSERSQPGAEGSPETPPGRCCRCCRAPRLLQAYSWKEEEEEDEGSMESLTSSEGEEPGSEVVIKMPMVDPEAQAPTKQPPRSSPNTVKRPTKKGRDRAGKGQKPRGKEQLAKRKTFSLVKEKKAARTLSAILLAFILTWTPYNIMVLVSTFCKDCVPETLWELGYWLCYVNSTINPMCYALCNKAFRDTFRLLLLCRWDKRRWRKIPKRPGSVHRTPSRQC

[22] = molecular target: Protein cereblon/Zinc finger protein Aiolos (Homo sapiens, UniProt Q96SW2+Q9UKT9); experiment: Protac activity at CRBN/IKZF3 (unknown origin) assessed as IKZF3 degradation; type: protein assay
[23] = molecular target: Muscarinic acetylcholine receptor M2 (Homo sapiens) (UniProt P08172); experiment: Inhibition of human muscarinic M2 receptor at 10 uM relative to control
[24] = molecular target: Multidrug and toxin extrusion protein 2 (Homo sapiens, UniProt Q86VL8); experiment: Inhibition of MATE2 (unknown origin) at upto 3 uM
Sequence of Multidrug and toxin extrusion protein 2 (Q86VL8 whole entry): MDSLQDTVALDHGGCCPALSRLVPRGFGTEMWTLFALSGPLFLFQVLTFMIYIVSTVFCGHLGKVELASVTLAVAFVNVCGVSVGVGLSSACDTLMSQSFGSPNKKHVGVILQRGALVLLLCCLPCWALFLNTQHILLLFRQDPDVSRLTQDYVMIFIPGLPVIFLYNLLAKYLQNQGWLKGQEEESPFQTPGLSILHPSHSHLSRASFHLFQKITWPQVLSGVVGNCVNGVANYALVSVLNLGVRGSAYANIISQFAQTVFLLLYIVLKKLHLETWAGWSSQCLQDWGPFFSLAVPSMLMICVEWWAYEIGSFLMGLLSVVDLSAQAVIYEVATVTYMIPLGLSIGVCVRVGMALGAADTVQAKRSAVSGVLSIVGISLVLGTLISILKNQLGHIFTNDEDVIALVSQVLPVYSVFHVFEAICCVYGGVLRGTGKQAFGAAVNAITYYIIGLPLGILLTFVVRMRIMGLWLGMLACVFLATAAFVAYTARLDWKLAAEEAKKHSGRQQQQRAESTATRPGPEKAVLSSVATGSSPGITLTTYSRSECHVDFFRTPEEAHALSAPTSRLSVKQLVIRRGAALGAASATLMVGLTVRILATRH

[25] = molecular target: T1, Protein cereblon/Eukaryotic peptide chain release factor GTP-binding subunit ERF3A (Homo sapiens); experiment: Protac activity at CRBN/GSPT1 in human DF-15 cells assessed as in depth GSPT1 degradation incubated for 20 hrs by hunter detection reagent based luminescence assay relative to control; type: cell-based; conditions: DF15
[26] = molecular target: Solute carrier family 22 member 6 (Homo sapiens, UniProt Q4U2R8); experiment: Inhibition of OAT1 (unknown origin) at upto 3 uM
[27] = molecular target: T1, Protein cereblon/Eukaryotic peptide chain release factor GTP-binding subunit ERF3A (Homo sapiens); experiment: Protac activity at CRBN/GSPT1 in human DF15 cells assessed as in depth GSPT1 degradation incubated for 4 hrs by hunter detection reagent based luminescence assay; type: cell-based
[28] = Toxicity in cynomolgus monkey assessed as effect on cardiovascular system; parameters: species or system Macaca fascicularis; conditions: in vivo
HL-60 [29] = experiment: Antitumor activity against human HL-60 cells in xenografted model assessed as reduction in CD33+/CD45+ in bone marrow at 2.5 mg/kg, BID administered for 10 consecutive days relative to control; type: functional; conditions: HL-60, 240 h, time 10 day
[30] = molecular target: T1, Protein cereblon/Eukaryotic peptide chain release factor GTP-binding subunit ERF3A (Homo sapiens); experiment: Protac activity at CRBN/GSPT1 in human DF-15 cells assessed as maximum GSPT1 degradation incubated for 20 hrs by hunter detection reagent based luminescence assay relative to control; type: cell-based; conditions: DF15
[31] = molecular target: Solute carrier organic anion transporter family member 1B3 (Homo sapiens, UniProt Q9NPD5); experiment: Inhibition of OATP1B3 (unknown origin) at upto 3 uM
Sequence of Solute carrier organic anion transporter family member 1B3 (Q9NPD5 whole entry): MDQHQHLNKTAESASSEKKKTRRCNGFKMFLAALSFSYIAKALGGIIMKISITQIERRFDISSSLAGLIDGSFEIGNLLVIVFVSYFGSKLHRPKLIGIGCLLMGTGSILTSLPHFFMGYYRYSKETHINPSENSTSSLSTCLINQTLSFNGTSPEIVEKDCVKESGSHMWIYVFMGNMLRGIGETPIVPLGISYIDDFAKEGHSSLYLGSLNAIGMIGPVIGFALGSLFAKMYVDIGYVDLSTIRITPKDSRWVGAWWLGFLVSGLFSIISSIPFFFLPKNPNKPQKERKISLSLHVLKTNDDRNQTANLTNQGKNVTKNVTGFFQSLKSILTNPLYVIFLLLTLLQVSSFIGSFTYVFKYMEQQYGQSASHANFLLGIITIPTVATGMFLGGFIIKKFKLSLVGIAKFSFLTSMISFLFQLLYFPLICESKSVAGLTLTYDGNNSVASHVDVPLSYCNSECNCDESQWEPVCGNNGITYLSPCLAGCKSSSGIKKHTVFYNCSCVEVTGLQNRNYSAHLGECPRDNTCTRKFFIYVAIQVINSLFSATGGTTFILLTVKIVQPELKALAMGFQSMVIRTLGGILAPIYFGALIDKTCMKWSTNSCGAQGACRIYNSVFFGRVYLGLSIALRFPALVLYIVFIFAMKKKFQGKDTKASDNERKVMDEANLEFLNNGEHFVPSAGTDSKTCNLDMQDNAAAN

[32] = molecular target: T1, Protein cereblon/Eukaryotic peptide chain release factor GTP-binding subunit ERF3A (Homo sapiens); experiment: Protac activity at CRBN/GSPT1 in CD3+ T cells derived from patients assessed as reduction of GSPT1 levels in peripheral blood blast administered intravenously for 5 days by flow cytometry analysis; type: cell-based; conditions: CD3-positive T cell, time 5.0 day
Homo sapiens = species: Homo sapiens; experiment: Inhibition of P-gp (unknown origin) at upto 3 uM; conditions: dose microM <=3
[33] = Total clearance in iv dosed acute myeloid leukemia patient; type: ADME, organism-based; conditions: human, in vivo
Cereblon/Ikaros = Cereblon/Ikaros (Homo sapiens, UniProt Q13422+Q96SW2); experiment: Protac activity at CRBN/IKZF1 (unknown origin) assessed as IKZF1 degradation; type: protein-complex assay
[34] = molecular target: ATP-binding cassette sub-family C member 2 (Homo sapiens, UniProt Q92887); experiment: Inhibition of MRP2 (unknown origin) at upto 3 uM
[35] = molecular target: T1, Protein cereblon/Eukaryotic peptide chain release factor GTP-binding subunit ERF3A (Homo sapiens); experiment: Protac activity at CRBN/GSPT1 in human DF-15 cells assessed as GSPT1 degradation at 0.2 to 3 uM incubated for 4 to 6 hrs by Incell-hunter detection reagent based luminescence assay relative to control; type: cell-based; conditions: DF15, dose 0.2-3 µM, time 4-6 hrs
[36] = molecular target: Solute carrier family 22 member 2 (Homo sapiens, UniProt O15244); experiment: Inhibition of OCT2 (unknown origin) at upto 3 uM
[37] = molecular target: T1, Protein cereblon/Eukaryotic peptide chain release factor GTP-binding subunit ERF3A (Homo sapiens); experiment: Protac activity at CRBN/GSPT1 in human KG-1 cells assessed as GSPT1 degradation at 1 uM incubated for 4 hrs in presence of neddylation inhibitor MLN4924 by western blot analysis; type: cell-based
[38] = molecular target: T1, Protein cereblon/Eukaryotic peptide chain release factor GTP-binding subunit ERF3A (Homo sapiens); experiment: Protac activity at CRBN/GSPT1 in human DF15 cells assessed as maximum GSPT1 degradation incubated for 4 hrs by hunter detection reagent based luminescence assay relative to control; type: cell-based
[39] = Clearance in CD1 mouse at 2 mg/kg, iv administered as bolus dose; type: ADME, organism-based; conditions: in vivo
[40] = MRT in cynomolgus monkey at 1 mg/kg, iv administered as bolus dose; type: ADME, organism-based, Macaca fascicularis; conditions: in vivo
[41] = molecular target: Voltage-gated inwardly rectifying potassium channel KCNH2 (Homo sapiens, UniProt Q12809); experiment: Inhibition of human ERG
Sequence of Voltage-gated inwardly rectifying potassium channel KCNH2 (Q12809 whole entry): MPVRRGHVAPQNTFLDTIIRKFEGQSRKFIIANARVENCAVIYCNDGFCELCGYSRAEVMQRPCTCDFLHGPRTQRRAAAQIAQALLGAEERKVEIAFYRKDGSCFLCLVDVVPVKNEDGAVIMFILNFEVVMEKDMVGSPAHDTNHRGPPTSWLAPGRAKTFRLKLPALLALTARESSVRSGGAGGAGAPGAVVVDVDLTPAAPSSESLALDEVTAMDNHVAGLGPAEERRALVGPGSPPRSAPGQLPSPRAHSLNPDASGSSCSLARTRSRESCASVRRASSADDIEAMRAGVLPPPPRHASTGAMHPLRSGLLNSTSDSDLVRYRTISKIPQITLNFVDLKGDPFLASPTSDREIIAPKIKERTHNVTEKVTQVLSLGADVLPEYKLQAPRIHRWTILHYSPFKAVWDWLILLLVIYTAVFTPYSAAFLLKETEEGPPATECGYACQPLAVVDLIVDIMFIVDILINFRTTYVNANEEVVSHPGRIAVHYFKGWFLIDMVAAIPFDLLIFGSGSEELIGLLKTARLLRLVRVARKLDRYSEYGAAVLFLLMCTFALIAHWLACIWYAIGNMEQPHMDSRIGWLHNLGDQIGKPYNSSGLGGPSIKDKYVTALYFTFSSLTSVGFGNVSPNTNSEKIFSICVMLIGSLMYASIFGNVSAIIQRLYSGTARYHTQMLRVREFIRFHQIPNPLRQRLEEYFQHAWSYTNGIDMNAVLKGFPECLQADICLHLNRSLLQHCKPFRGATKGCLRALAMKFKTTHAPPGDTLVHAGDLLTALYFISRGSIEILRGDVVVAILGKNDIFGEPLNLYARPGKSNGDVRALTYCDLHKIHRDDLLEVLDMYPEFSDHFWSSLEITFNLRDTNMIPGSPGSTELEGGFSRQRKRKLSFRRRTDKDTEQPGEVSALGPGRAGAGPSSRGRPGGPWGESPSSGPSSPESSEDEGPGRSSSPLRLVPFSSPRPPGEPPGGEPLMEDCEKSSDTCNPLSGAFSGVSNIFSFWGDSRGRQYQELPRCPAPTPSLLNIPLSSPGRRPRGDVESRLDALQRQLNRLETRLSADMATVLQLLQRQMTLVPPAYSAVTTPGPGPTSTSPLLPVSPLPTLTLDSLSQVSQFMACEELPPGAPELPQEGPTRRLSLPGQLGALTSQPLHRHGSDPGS

[42] = Clearance in cynomolgus monkey at 1 mg/kg, iv administered as bolus dose; type: ADME, organism-based, Macaca fascicularis; conditions: in vivo
KG-1 = experiment: Antiproliferative activity against human KG-1 cells assessed as reduction in cell viability incubated for 72 hrs by cell titer glo assay; type: functional, cell-based; conditions: KG-1, 72 h
[43] = Selectivity index, ratio of IC50 for cytotoxicity against human THLE-2 cells to IC50 for antiproliferative activity against human KG-1 cells
THLE-2 = experiment: Cytotoxicity against human THLE-2 cells assessed as cell viability incubated for 72 hrs by cell titer glo assay; type: cell-based; conditions: THLE-2, 72 h

O=C1CCC(N2Cc3cc(CNC(=O)C(F)(F)c4ccc(Cl)cc4)ccc3C2=O)C(=O)N1 (stereo not given)
clearance [1]: 1.7 L/h/kg | half-life [2]: 9.3 h | inhibition (INH) [3]: Not Active | Vd [4]: 61.7 L | Activity [5]: Active | Activity [6]: Dose-dependent effect | Activity [7]: Active | inhibition at 2.5 µM (CYP2C9): 41% | inhibition in vivo at 5 mg/kg (HL-60 [8]): 54% | Vd [9]: 1.1 L/kg | MRT [10]: 0.24 h | MRT [11]: 1.3 h | Activity [12]: 90% | Activity [13]: Active | Activity [14]: Active | IC50 (Cytochrome P450 2C19): 1.53 µM | Activity [15]: Active | inhibition (INH) [16]: Not Active | EC50 (Bone marrow cell): 0.006 µM | Activity [17]: inactive | inhibition (INH) [18]: Not Active | Vd [19]: 1 L/kg | Vd [20]: 2.2 L/kg | inhibition [21]: > 50% | EC50 [22]: > 10 µM | inhibition [23]: > 50% | inhibition (INH) [24]: Not Active | Activity [25]: Active | inhibition (INH) [26]: Not Active | Activity [27]: Active | Activity [28]: Non-Toxic | inhibition in vivo at 2.5 mg/kg (HL-60 [29]): 71.5% | Emax [30]: 88% | inhibition (INH) [31]: Not Active | Activity [32]: Dose-dependent effect | inhibition (Homo sapiens): inactive | clearance [33]: 116 mL/min | EC50 (Cereblon/Ikaros): > 10 µM | inhibition (INH) [34]: Not Active | Activity [35]: 75% | inhibition (INH) [36]: Not Active | Activity [37]: inactive | Emax [38]: 51% | clearance [39]: 4.07 L/h/kg | MRT [40]: 4 h | IC50 [41]: 5.3 µM | clearance [42]: 0.36 L/h/kg

O=C1CCC(N2Cc3cc(CNC(=O)C(=O)c4ccccc4)ccc3C2=O)C(=O)N1 (stereo not given)
IC50 (KG-1): 0.009 µM | Ratio IC50 [43]: 22 | IC50 (THLE-2): 0.196 µM

— ChEMBL document CHEMBL4706692, “CC-90009: A Cereblon E3 Ligase Modulating Drug That Promotes Selective Degradation of GSPT1 for the Treatment of Acute Myeloid Leukemia” (J Med Chem, 2021)
